According to US10258073B2, “Functional nutritional blend for thermo-metabolic performance” (priority 2016, dated 2019):

System: Mouse 3T3-L1 pre adipocytes
Experiment: Cell viability by Sulforhodamine B (SRB) assay
Format: cell-based
Details: 72 h
Experimental: Cell culture: Mouse immortalised 3T3-L1 pre adipocytes were cultured in 5% CO2 at 37° C. in growth media consisting of Dulbecco's Modified Eagles Medium (DMEM) containing 10% heat-inactivated fetal calf serum with 40 μg/mL of gentamycin 5×10^3 cells were seeded per well in a 96 well plate and allowed to grow as a confluent monolayer.
Mouse 3T3-L1 pre adipocytes were cultured in DMEM containing 10% heat-inactivated foetal calf serum. 5000 cells were seeded in 96 well culture plates and allowed to form adhere and form a monolayer. Test compounds were added at different concentrations and incubated for 72 hours at 37° C. and 5% CO2. Cells were fixed using 10% trichloroacetic acid (TCA) solution at 4° C. for one hour. SRB solution (0.4%) was added to the wells and incubated for 30 minutes at room temperature. Excess dye was washed 5 times with 1% acetic acid. 100 μl of 10 mM trizma base was added to the wells to solubilize the SRB. Absorbance was read using a microplate reader at a wave length of 492 nm. The absorbance of cells with growth media was considered as 100% viable and percentage viability was calculated based on this reading.

## O=C(/C=C/C=C/c1ccc2c(c1)OCO2)N1CCCCC1 [Piperine]
  Non-toxic concentration: 25 µg/mL
